According to PubChem BioAssay (NCI):
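At the GI50, growth is halved. TGI: total growth inhibition.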

How the values were obtained:
Experiment in all cases: NCI-60 cell line screen, 384-well format
SF-268 CNS = system: SF-268 CNS
ACHN renal = system: ACHN renal
UACC-62 melanoma = system: UACC-62 melanoma
NCI-H460 NSCLC = system: NCI-H460 NSCLC
OVCAR-4 ovarian = system: OVCAR-4 ovarian
SF-295 CNS = system: SF-295 CNS
SW-620 colon = system: SW-620 colon
MALME-3M melanoma = system: MALME-3M melanoma
DU-145 prostate = system: DU-145 prostate
K-562 leukemia = system: K-562 leukemia
RPMI-8226 leukemia = system: RPMI-8226 leukemia
NCI-H522 lung = system: NCI-H522 lung
HOP-92 NSCLC = system: HOP-92 NSCLC
TK-10 renal = system: TK-10 renal
UACC-257 melanoma = system: UACC-257 melanoma
NCI-H23 lung = system: NCI-H23 lung
SK-OV-3 ovarian = system: SK-OV-3 ovarian
U251 glioblastoma = system: U251 glioblastoma
MCF7 breast = system: MCF7 breast
HCC-2998 colon = system: HCC-2998 colon
SK-MEL-2 melanoma = system: SK-MEL-2 melanoma
EKVX NSCLC = system: EKVX NSCLC
CAKI-1 renal = system: CAKI-1 renal
786-0 renal = system: 786-0 renal
A549 NSCLC = system: A549 NSCLC
PC-3 prostate = system: PC-3 prostate
SN12C renal = system: SN12C renal
OVCAR-5 ovarian = system: OVCAR-5 ovarian
HCT-116 colon = system: HCT-116 colon
OVCAR-8 ovarian = system: OVCAR-8 ovarian
MDA-MB-435 melanoma = system: MDA-MB-435 melanoma
LOX IMVI melanoma = system: LOX IMVI melanoma
SF-539 CNS = system: SF-539 CNS
COLO 205 colon = system: COLO 205 colon
HCT-15 colon = system: HCT-15 colon
A498 renal = system: A498 renal
NCI-H226 lung = system: NCI-H226 lung
UO-31 renal = system: UO-31 renal
HL-60(TB) leukemia = system: HL-60(TB) leukemia
NCI-H322M lung = system: NCI-H322M lung
SR leukemia = system: SR leukemia
NCI/ADR-RES ovarian = system: NCI/ADR-RES ovarian
CCRF-CEM leukemia = system: CCRF-CEM leukemia
MDA-MB-231 breast = system: MDA-MB-231 breast
MDA-MB-468 breast = system: MDA-MB-468 breast
OVCAR-3 ovarian = system: OVCAR-3 ovarian
KM12 colon = system: KM12 colon

**Q.** How did the GI50 (SF-268 CNS) turn out when C[C@]12CCCN1CC1=NNC(=O)c3cc(F)cc4[nH]c2c1c34 was run?
**A.** Its GI50 is 14.5 µM.

**Q.** What about the TGI (SF-268 CNS) of the same compound?
**A.** Its TGI is 31.6 µM.

**Q.** What about the GI50 (ACHN renal) of the same compound?
**A.** The GI50 was 24 µM.

**Q.** What about the TGI (ACHN renal) of the same compound?
**A.** Its TGI is greater than 76.2 µM.

**Q.** And the GI50 (UACC-62 melanoma)?
**A.** Its GI50 is 11.7 µM.

**Q.** And the TGI (UACC-62 melanoma)?
**A.** The TGI was 28.1 µM.

**Q.** What about the GI50 (NCI-H460 NSCLC) of the same compound?
**A.** The GI50 was 4.64 µM.

**Q.** And the TGI (NCI-H460 NSCLC)?
**A.** The TGI was 20.6 µM.

**Q.** And the GI50 (OVCAR-4 ovarian)?
**A.** The GI50 was 26.5 µM.

**Q.** And the TGI (OVCAR-4 ovarian)?
**A.** The TGI was 79.4 µM.

**Q.** What about the GI50 (SF-295 CNS) of the same compound?
**A.** The GI50 was 10.7 µM.

**Q.** What about the TGI (SF-295 CNS) of the same compound?
**A.** The TGI was 51.9 µM.

**Q.** And the GI50 (SW-620 colon)?
**A.** Its GI50 is 7.57 µM.

**Q.** What about the TGI (SW-620 colon) of the same compound?
**A.** The TGI was greater than 39.2 µM.

**Q.** What about the GI50 (MALME-3M melanoma) of the same compound?
**A.** Its GI50 is 34.4 µM.

**Q.** What about the TGI (MALME-3M melanoma) of the same compound?
**A.** The TGI was 83.6 µM.

**Q.** And the GI50 (DU-145 prostate)?
**A.** Its GI50 is 27.9 µM.

**Q.** And the TGI (DU-145 prostate)?
**A.** The TGI was 80 µM.

**Q.** And the GI50 (K-562 leukemia)?
**A.** The GI50 was 38.6 µM.

**Q.** What about the TGI (K-562 leukemia) of the same compound?
**A.** Its TGI is greater than 100 µM.

**Q.** What about the GI50 (RPMI-8226 leukemia) of the same compound?
**A.** Its GI50 is 10.5 µM.

**Q.** What about the TGI (RPMI-8226 leukemia) of the same compound?
**A.** Its TGI is 22.9 µM.

**Q.** And the GI50 (NCI-H522 lung)?
**A.** Its GI50 is 16.8 µM.

**Q.** And the TGI (NCI-H522 lung)?
**A.** The TGI was 44.6 µM.

**Q.** And the GI50 (HOP-92 NSCLC)?
**A.** The GI50 was 18.4 µM.

**Q.** What about the TGI (HOP-92 NSCLC) of the same compound?
**A.** Its TGI is greater than 60.9 µM.

**Q.** And the GI50 (TK-10 renal)?
**A.** The GI50 was 24.1 µM.

**Q.** And the TGI (TK-10 renal)?
**A.** The TGI was 73.9 µM.

**Q.** And the GI50 (UACC-257 melanoma)?
**A.** Its GI50 is 37.2 µM.

**Q.** What about the TGI (UACC-257 melanoma) of the same compound?
**A.** Its TGI is greater than 92.2 µM.

**Q.** What about the GI50 (NCI-H23 lung) of the same compound?
**A.** The GI50 was 15.4 µM.

**Q.** And the TGI (NCI-H23 lung)?
**A.** Its TGI is 35.5 µM.

**Q.** And the GI50 (SK-OV-3 ovarian)?
**A.** The GI50 was 35.5 µM.

**Q.** What about the TGI (SK-OV-3 ovarian) of the same compound?
**A.** Its TGI is greater than 100 µM.

**Q.** And the GI50 (U251 glioblastoma)?
**A.** Its GI50 is 13.6 µM.

**Q.** And the TGI (U251 glioblastoma)?
**A.** The TGI was greater than 79.2 µM.

**Q.** And the GI50 (MCF7 breast)?
**A.** The GI50 was 19.4 µM.

**Q.** What about the TGI (MCF7 breast) of the same compound?
**A.** Its TGI is 71.1 µM.

**Q.** What about the GI50 (HCC-2998 colon) of the same compound?
**A.** Its GI50 is 9.2 µM.

**Q.** And the TGI (HCC-2998 colon)?
**A.** The TGI was 27.5 µM.

**Q.** What about the GI50 (SK-MEL-2 melanoma) of the same compound?
**A.** The GI50 was 20.4 µM.

**Q.** What about the TGI (SK-MEL-2 melanoma) of the same compound?
**A.** Its TGI is 41.6 µM.

**Q.** And the GI50 (EKVX NSCLC)?
**A.** Its GI50 is 20.2 µM.

**Q.** And the TGI (EKVX NSCLC)?
**A.** The TGI was 51.6 µM.

**Q.** What about the GI50 (CAKI-1 renal) of the same compound?
**A.** The GI50 was 18.1 µM.

**Q.** What about the TGI (CAKI-1 renal) of the same compound?
**A.** The TGI was 69.4 µM.

**Q.** What about the GI50 ([…]-0 renal) of the same compound?
**A.** Its GI50 is 29 µM.

**Q.** And the TGI (786-0 renal)?
**A.** Its TGI is greater than 80.9 µM.

**Q.** And the GI50 (A549 NSCLC)?
**A.** Its GI50 is 29.1 µM.

**Q.** What about the TGI (A549 NSCLC) of the same compound?
**A.** The TGI was greater than 100 µM.

**Q.** And the GI50 (PC-3 prostate)?
**A.** The GI50 was 20 µM.

**Q.** What about the TGI (PC-3 prostate) of the same compound?
**A.** The TGI was greater than 80.7 µM.

**Q.** What about the GI50 (SN12C renal) of the same compound?
**A.** The GI50 was 13.1 µM.

**Q.** What about the TGI (SN12C renal) of the same compound?
**A.** The TGI was 35 µM.

**Q.** What about the GI50 (OVCAR-5 ovarian) of the same compound?
**A.** The GI50 was 17.9 µM.

**Q.** What about the TGI (OVCAR-5 ovarian) of the same compound?
**A.** Its TGI is 44.5 µM.

**Q.** And the GI50 (HCT-116 colon)?
**A.** The GI50 was 9 µM.

**Q.** And the TGI (HCT-116 colon)?
**A.** Its TGI is 43.3 µM.

**Q.** What about the GI50 (OVCAR-8 ovarian) of the same compound?
**A.** Its GI50 is 13 µM.

**Q.** What about the TGI (OVCAR-8 ovarian) of the same compound?
**A.** Its TGI is 35.7 µM.

**Q.** And the GI50 (MDA-MB-435 melanoma)?
**A.** Its GI50 is 42.4 µM.

**Q.** And the TGI (MDA-MB-435 melanoma)?
**A.** The TGI was greater than 100 µM.

**Q.** What about the GI50 (LOX IMVI melanoma) of the same compound?
**A.** The GI50 was 16.3 µM.

**Q.** What about the TGI (LOX IMVI melanoma) of the same compound?
**A.** Its TGI is 60.4 µM.

**Q.** And the GI50 (SF-539 CNS)?
**A.** Its GI50 is 14.2 µM.

**Q.** And the TGI (SF-539 CNS)?
**A.** The TGI was 33.9 µM.

**Q.** What about the GI50 (COLO 205 colon) of the same compound?
**A.** Its GI50 is 17.8 µM.

**Q.** And the TGI (COLO 205 colon)?
**A.** Its TGI is 45.1 µM.

**Q.** And the GI50 (HCT-15 colon)?
**A.** The GI50 was 32 µM.

**Q.** And the TGI (HCT-15 colon)?
**A.** Its TGI is greater than 95.3 µM.

**Q.** What about the GI50 (A498 renal) of the same compound?
**A.** The GI50 was 18.4 µM.

**Q.** What about the TGI (A498 renal) of the same compound?
**A.** Its TGI is 49 µM.

**Q.** And the GI50 (NCI-H226 lung)?
**A.** Its GI50 is 14.8 µM.

**Q.** And the TGI (NCI-H226 lung)?
**A.** The TGI was 50.2 µM.

**Q.** What about the GI50 (UO-31 renal) of the same compound?
**A.** The GI50 was 27.5 µM.

**Q.** What about the TGI (UO-31 renal) of the same compound?
**A.** The TGI was 96.1 µM.

**Q.** What about the GI50 (HL-60(TB) leukemia) of the same compound?
**A.** Its GI50 is 15.6 µM.

**Q.** And the TGI (HL-60(TB) leukemia)?
**A.** Its TGI is 29.1 µM.

**Q.** And the GI50 (NCI-H322M lung)?
**A.** Its GI50 is 23.4 µM.

**Q.** And the TGI (NCI-H322M lung)?
**A.** The TGI was 52.5 µM.

**Q.** What about the GI50 (SR leukemia) of the same compound?
**A.** The GI50 was 1.27 µM.

**Q.** And the TGI (SR leukemia)?
**A.** The TGI was 2.58 µM.

**Q.** And the GI50 (NCI/ADR-RES ovarian)?
**A.** Its GI50 is 20.9 µM.

**Q.** And the TGI (NCI/ADR-RES ovarian)?
**A.** The TGI was 75 µM.

**Q.** And the GI50 (CCRF-CEM leukemia)?
**A.** The GI50 was 14.4 µM.

**Q.** And the TGI (CCRF-CEM leukemia)?
**A.** Its TGI is 27.8 µM.

**Q.** What about the GI50 (MDA-MB-231 breast) of the same compound?
**A.** Its GI50 is 13.6 µM.

**Q.** What about the TGI (MDA-MB-231 breast) of the same compound?
**A.** Its TGI is 60.1 µM.

**Q.** What about the GI50 (MDA-MB-468 breast) of the same compound?
**A.** The GI50 was 3.57 µM.

**Q.** And the TGI (MDA-MB-468 breast)?
**A.** Its TGI is 18.8 µM.

**Q.** And the GI50 (OVCAR-3 ovarian)?
**A.** Its GI50 is 14 µM.

**Q.** What about the TGI (OVCAR-3 ovarian) of the same compound?
**A.** Its TGI is 39.9 µM.

**Q.** What about the GI50 (KM12 colon) of the same compound?
**A.** The GI50 was 13.2 µM.

**Q.** What about the TGI (KM12 colon) of the same compound?
**A.** The TGI was 42.3 µM.
